Source: patent US9808470B2, “Estrogenic components for use in the treatment of neurological disorders” (UNIVERSITE DE LIEGE, priority 2012, dated 2017)
Where “and” joins values, the source holds several entries; their conditions need not be identical. Equal entries are not always repeated.

Legend:
[1] = octanol-water; depending on experimental settings; listed as estetrol; cited from earlier work
[2] = test system: vascular endothelial growth factor (VEGF); assay: Ex.3 neuroprotective HIE rat model: VEGF staining; format: in vivo
Experimental: The sections were heated in 10 mmol/L citrate buffer (pH 6.0) at 100° C. for 10 minutes. Endogenous peroxidase activity was blocked with 3% hydrogen peroxide for 10 minutes and after a second blocking with 5% normal goat serum, the sections were incubated with anti-doublecortin (DCX) antibody, diluted 1:1000 (rabbit polyclonal antibody; Abcam, Cambridge, UK) and anti-vascular endothelial growth factor (VEGF) antibody, diluted 1:100 (mouse monoclonal antibody; Abcam, Cambridge, UK) overnight at 4° C. After rinsing, Alexa Fluor® goat anti-rabbit, diluted 1:1000 and Alexa Fluor® goat anti-mouse, diluted 1:1000 (Invitrogen Inc., Ghent, Belgium) were added and sections were incubated 1 h at room temperature. Mounting medium containing 4′,6-diamidino-2-phenylindole (DAPI) for fluorescent studies was used (Vector Laboratories). Samples were analyzed with the aid of a microscope (Olympus Vanox AHBT3, Olympus), and the ImageJ software (NIH). The percentage of positively stained cells was quantified as a sum of positively stained either DCX or VEGF cells divided by the total number of DAPI positive cells expressed in percentage.
Newborn rat pups were assigned to one of the following 6 groups from postnatal day 4: Sham group (n=24), Vehicle group (n=14), E4 1 mg/kg/per day group (n=11), E4 5 mg/kg/per day group (n=14), E4 10 mg/kg/per day group (n=14), or E4 50 mg/kg/per day group (n=19). From postnatal day 4, rat pups were intraperitoneally injected either vehicle (Vehicle group) or E4 (1, 5, 10, or 50 mg/kg/per day in accordance to the E4 group assignment) or neither vehicle nor E4 (Sham group). At day 7, 30 minutes after last injection, animals were anesthetized with isoflurane (induction, 3.0%; maintenance, 1.5%), and the rat pups from Vehicle and E4 groups passed through surgery encompassing left common carotid artery double ligation and cut. After the procedure, the pups were returned to their dams and were allowed to recover for 1 hour. The pups were then placed in the humidified hypoxic in vivo cabinet (CoyLab, Grass Lake, Mich., USA). Hypoxia was produced by the inhalation of 11%-8% of oxygen balanced by nitrogen at decreased concentration of oxygen for 20 minutes, followed by inhalation of 8% oxygen and 92% nitrogen at constant concentration for 35 minutes. All the manipulations were performed at 37° C. The Sham group went through similar procedures without left common carotid artery ligation followed by hypoxia nor injection. Rat pups recovered with their dams and reared normally until being sacrificed at postnatal day 14.

[3] = test system: intact cells in hippocampus and cortex; assay: Ex.2 neonatal HIE rat model, pre-treatment: hematoxylin-eosin staining and intact cell counting; format: in vivo
Experimental: Paraformaldehyde-fixed paraffin embedded samples of the removed brains were coronally sectioned at the same level of the hippocampus region in accordance to the Paxinos rat brain atlas (Paxinos and Watson 2007. In: The rat brain in stereotaxic coordinates, 6th edition). Thickness of sections was 5 μm. Hematoxylin-eosin staining was performed. Briefly, sections were deparaffinized in xylene and rehydrated in graded ethanol concentrations before staining. Slides were stained with hematoxylin, rinsed for a few seconds in water, then placed in 1% eosin and washed, dehydrated, and coverslipped.
Intact cell counting was performed on hematoxylin-eosin-stained sections of the rat pups brains at magnification 400× in 3 fields of the respective brain area. Countings were performed in cortex and hippocampus (regions: dentate gyrus (DG), subgranular zone (SGZ), cornu ammonis (CA1, CA2/CA3)). The sections were analyzed with the aid of a microscope (Olympus BX51, Olympus, Tokyo, Japan), an image scanner (DotSlide Digital Virtual Microscopy, Olympus, Germany) and ImageJ software (NIH, US).
Intact cells are uninjured. Injured cells are characterized by a pale eosinophilic staining along with non-uniform nuclear densities-shrunken, condensed, or pale and enlarged.
After delivery, newborn rat pups were assigned to one of the following 4 groups: Sham group, Vehicle group, E4 5 mg/kg/per day group and E4 50 mg/kg/per day group. From day 4 to day 7 inclusive, rat pups were injected intraperitoneally either vehicle (Vehicle group) or E4 (5 mg/kg or 50 mg/kg in accordance to the group assignment) or not injected at all (Sham group). At day 7, 30 minutes after last injection, animals from Vehicle and E4 (5 mg/kg or 50 mg/kg) groups passed through surgery encompassing left common carotid artery double ligation and cut, followed by hypoxia produced by the inhalation of 11%-8% of oxygen balanced by nitrogen at decreased concentration for 20 minutes, followed by inhalation of 8% oxygen and 92% nitrogen at constant concentration for 35 minutes. The Sham group went through similar procedures without left common carotid artery ligation and hypoxia. All the manipulations were performed at 37° C. Rat pups recovered with their dams until being sacrificed at postnatal day 14.

[4] = test system: glial fibrillary acidic protein (GFAP); assay: Ex.4 therapeutic HIE rat model: blood serum GFAP ELISA; format: in vivo; details: estetrol treated animals (1, 5, 10, 50 mg/kg single ip dose after HI); PND14; vs vehicle
Experimental: Blood was withdrawn, centrifuged and the serum samples were stored at −80° C.
ELISAs for detecting the brain damage markers S100B protein (Catalog# CSB-E08066r, Cusabio Biotech Co., LTD, China), and glial fibrillary acidic protein (GFAP) (Catalog# E90068Ra, Uscn Life sciences Inc., China) in blood serum samples were performed according to the manufacturers' recommendations.
To study the therapeutic effect of estetrol, newborn rat pups were assigned to one of the following 6 groups at postnatal day 7: sham group (n=29), vehicle group (n=20), 1 mg/kg E4 group (n=16), 5 mg/kg E4 group (n=19), 10 mg/kg day E4 (n=17) and 50 mg/kg day E4 group (n=15). At postnatal day 7 animals were anesthetized with isoflurane (induction, 3.0%; maintenance, 1.5%), and the rat pups from vehicle and E4 groups passed through surgery encompassing left common carotid artery double ligation and cut. After surgery, the pups were returned to their dams and allowed to recover for 1 hour. The pups were then placed in a humidified hypoxic in vivo cabinet (CoyLab). Hypoxia was produced by the inhalation of 11%-8% of oxygen balanced by nitrogen at decreased concentration of oxygen for 20 minutes, followed by inhalation of 8% oxygen and 92% nitrogen at constant concentration for 35 minutes. All the manipulations were performed at 37° C. […]

## C[C@]12CC[C@@H]3c4ccc(O)cc4CC[C@H]3[C@@H]1[C@@H](O)[C@@H](O)[C@@H]2O [E4, 1,3,5(10)-estratrien-3,15α,16α,17β-tetrol]
[1]
  Pow Log: 1.47 and 1.695
[2]; 1 mg/kg E4 ip PND4-7 before HI, CA2/CA3
  percentage of VEGF positively stained cells: 34.1±6.855%
[2]; 1 mg/kg E4 ip PND4-7 before HI, DG
  percentage of VEGF positively stained cells: 43.5±2.083%
[2]; 5 mg/kg E4 ip PND4-7 before HI, DG
  percentage of VEGF positively stained cells: 46.0±4.361%
[2]; 10 mg/kg E4 ip PND4-7 before HI, CA1
  percentage of VEGF positively stained cells: 37.4±7.645%
[2]; 10 mg/kg E4 ip PND4-7 before HI, DG
  percentage of VEGF positively stained cells: 47.0±5.362%
[2]; 10 mg/kg E4 ip PND4-7 before HI, cortex
  percentage of VEGF positively stained cells: 46.2±7.646%
[2]; 50 mg/kg E4 ip PND4-7 before HI, DG
  percentage of VEGF positively stained cells: 46.0±4.465%
[3]; E4 5 mg/kg ip day 4-7 before HI, DG, vs Vehicle
  number of intact cells per visual field: significantly higher
[3]; E4 5 mg/kg ip day 4-7 before HI, SGZ, vs Sham and Vehicle
  number of intact cells per visual field: significantly higher
[3]; E4 50 mg/kg ip day 4-7 before HI, CA2/CA3, vs Vehicle and E4 5 mg/kg
  number of intact cells per visual field: significantly higher number of intact cells
[3]; E4 50 mg/kg ip day 4-7 before HI, cortex, vs Vehicle
  number of intact cells per visual field: significantly higher number of intact cells
[3]; E4 5 and 50 mg/kg ip day 4-7 before HI, CA1, among study groups
  number of intact cells per visual field: non-significant difference
[3]; E4 5 and 50 mg/kg ip day 4-7 before HI, day 14
  Hematoxylin-Eosin staining of hippocampus region: neuroprotective effect
[4]
  expression of GFAP protein in blood serum: significantly lower expression
